Reference: patent US4599331A, “Etianic acids as antiangiogenics” (Syntex (U.S.A.) Inc., priority 1984, dated 1986)
“And” between values parts separate entries of the source, which are not always exact repeats. Equal values may be shown once.

Key:
[1] = system: Hamster Melanoma RPM1 1846 tumor cells; test: hamster cheek pouch (HCP) angiogenesis inhibition, 1846 tumor cell stimulus; format: in vivo, Male Syrian Golden hamsters; conditions: Table 1; 3×10^5 tumor cells; between 0.5 and 4 mg/kg s.c. daily; each number independent result, average of six animals
Method: Each compound of the series was also tested for anti-angiogenic activity by an in vivo test that measured vascularization in a hamster's cheek pouch in response to either an angiogenic polypeptide growth factor, epidermal growth factor (EGF) or an induced […].
(§1) In this example, the in vivo angiogenesis inhibition activity of etianic acid esters was tested. Male Syrian Golden hamsters, weighing between 120 g and 150 g were anaesthetized by intraperitoneal (I.P.) injection of a rodent anaesthetic mixture consisting of 50 mg/kg ketamine hydrochloride, 5 mg/kg xylazine and 1 mg/kg acepromazine. The left cheek pouch of each animal was everted with a pincet and pinned down to a plexiglass-rubber stage and observed through a Zeiss stereomicroscope. 10 μg of EGF or 3×10^5 Hamster Melanoma RPM1 1846 tumor cells in 10 μl Cibachrome Blue agarose (Amicon) were injected subcutaneously in the left lower quadrant of the pouch with a Hamilton syringe.
(§2) The pouch was then reinserted and animals were kept under observation until recovered from anaesthesia.
The animals were dosed daily with one test compound, starting one day before stimulus injection and continuing until observation. The test compounds were dissolved in a minimum volume of ethanol and diluted in sterile phosphate buffer solution. […]
(§3) Either five days or twelve days after the EGF or tumor cell injection, animals were anaesthetized by I.P. injection of the rodent anaesthetic mixture. The pouch was everted on the stage and examined under the stereomicroscope. Pictures were taken with a 35 mm using Kodak Tungsten 50 professional films.
(§4) The following subjective scoring was used for evaluating the photographs:
(§5) 1: minimal branching of vessels in the vicinity of injection site.
(§6) 2: new vessels reach injection site, area involved is minimal (<50% of area surrounding injection site).
(§7) 3: many vessels reach and cross injection site, new vessels are tortuous, (>50% of area surrounding injection site).
(§8) 4: "full blown", many tortuous vessels, leakages, hemorrhages, 100% of area around injection site, invasion of new vessels into non-injected areas.
(§9) In the case of the tumor, tumor size was also determined. (See Table 4)
(§10) Results are expressed as the mean of the score. The results are shown in Tables 1 and 2 are percent inhibition of HCP Stimulus.

[2] = system: Hamster Melanoma RPM1 1846 tumor cells; test: Inhibition of tumor growth (2 week assay); format: in vivo, Male Syrian Golden hamsters; conditions: Table 3, dose 0.8 mg/kg
Method: as §1, §2
The animals were dosed daily with one test compound, starting one day before stimulus injection and continuing until observation. The test compounds were dissolved in a minimum volume of ethanol and diluted in sterile phosphate buffer solution. Then between 0.5 and 4 mg/kg of the test compound was injected subcutaneously.
as §3, §4, §5, §6, §7, §8, §9, §10

SMILES	% Inhibition HCP Stimulus 1846 [1]	Angiogenesis % Inh. [2]	Tumor area % (inhibition of tumor growth) [2]	Angiogenesis score ([2]; mean of score 0 (no new vessels) to 4 (full blown), untreated 3.1 [A], 2.9 [B])	Tumor area Mn (mm^2) ([2]; untreated 40.7 ± 16.2 [A], 27.5 ± 15.3 [B])
CCC(=O)O[C@]1(C(=O)OC)[C@@H](C)C[C@H]2[C@@H]3CCC4=CC(=O)C=C[C@]4(C)[C@@]3(F)[C@@H](O)C[C@@]21C [compound 1]	40%	–	–	–	–
CCC(=O)O[C@]1(C(=O)OC)[C@@H](C)C[C@H]2[C@@H]3CC(F)C4=C(F)C(=O)C=C[C@]4(C)[C@@]3(F)[C@@H](O)C[C@@]21C (stereo partly drawn) [compound 3]	70%	–	–	–	–
CCCC(=O)O[C@]1(C(=O)OC)[C@@H](C)C[C@H]2[C@@H]3CC(F)C4=CC(=O)C=C[C@]4(C)[C@@]3(F)[C@@H](O)C[C@@]21C (stereo partly drawn) [compound 4]	26%	–	–	–	–
CCC(=O)O[C@]1(C(=O)OC)[C@H](C)C[C@H]2[C@@H]3CC(F)C4=C(F)C(=O)C=C[C@]4(C)[C@@]3(F)[C@@H](O)C[C@@]21C (stereo partly drawn) [compound 8]	41% and 58% and 75%	–	–	–	–
CCCC(=O)O[C@]1(C(=O)OC)[C@H](C)C[C@H]2[C@@H]3CC(F)C4=CC(=O)C=C[C@]4(C)[C@@]3(F)[C@@H](O)C[C@@]21C (stereo partly drawn) [compound 9]	32%	29%	86%	2.2	5.7 ± 5.9 mm^2
